Experiments:
[1] = molecular target: LTA4 hydrolase peptidase activity (Homo sapiens (Human), UniProt P09960); assay: Peptidase assay (hydrolysis of L-alanine-p-nitroanilide); assay type: biochemical; settings: L-alanine-p-nitroanilide substrate
Method: Inhibition of peptidase activity was measured for the compounds of the invention by using methods similar to those described in Kull, F. et al., The Journal of Biological Chemistry 1999, 274 (49): 34683-34690.
In brief, the enzyme (29 nM) was incubated with L-alanine-p-nitroanilide (1 mM) in 50 mM HEPES (pH 7.5), 100 mM KCL, 1% DMSO in the absence or presence of a compound of the invention for 1 hour at ambient temperature. Reaction was terminated by addition of acetic acid (1%). Formation of colored nitro-aniline was measured by the increase in absorbance at 405 nm in a Victor 2 plate reader (Wallac). Spontaneous hydrolysis of the substrate was corrected for by subtracting the absorbance of control incubations without enzyme.

[2] = system: LTB4 production in human whole blood; assay: Whole blood assay (LTB4 release upon calcium ionophore, ELISA), human blood; assay type: cell-based; settings: production of LTB4 in whole blood
Method: Compounds of the invention were tested for their ability as inhibitors of LTA4 hydrolase in a whole blood assay using human, mouse, rat or dog whole blood in a manner similar to that described in Penning, T. D. et al., J. Med. Chem. (2000), 43(4): 721-735. In this assay, compounds were tested for their ability to inhibit LTB4 release upon stimulation with calcium ionophore. The LTB4 levels in supernatants were measured by ELISA.

[3] = molecular target: recombinant human LTA4 hydrolase (Homo sapiens (Human), UniProt P09960); assay: LTA4 hydrolase homogeneous time resolved fluorescence (HTRF) assay; assay type: biochemical; settings: inhibition of hydrolysis of LTA4 to LTB4
recombinant human LTA4 hydrolase, sequence (P09960 whole entry): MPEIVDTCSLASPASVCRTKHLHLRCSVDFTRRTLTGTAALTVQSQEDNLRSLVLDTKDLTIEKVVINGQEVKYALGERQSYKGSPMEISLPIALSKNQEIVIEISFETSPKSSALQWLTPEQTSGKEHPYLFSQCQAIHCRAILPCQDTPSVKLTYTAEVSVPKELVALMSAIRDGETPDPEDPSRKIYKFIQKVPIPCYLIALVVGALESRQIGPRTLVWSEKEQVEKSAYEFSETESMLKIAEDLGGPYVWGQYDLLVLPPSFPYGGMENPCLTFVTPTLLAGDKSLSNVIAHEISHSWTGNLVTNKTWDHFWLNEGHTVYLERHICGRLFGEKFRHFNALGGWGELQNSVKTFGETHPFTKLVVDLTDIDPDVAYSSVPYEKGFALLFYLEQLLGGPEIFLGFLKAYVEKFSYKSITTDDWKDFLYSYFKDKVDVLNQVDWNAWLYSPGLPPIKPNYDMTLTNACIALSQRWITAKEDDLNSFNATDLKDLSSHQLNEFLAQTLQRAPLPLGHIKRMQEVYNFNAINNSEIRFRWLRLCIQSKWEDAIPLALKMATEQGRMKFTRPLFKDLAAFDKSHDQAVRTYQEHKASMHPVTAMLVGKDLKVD
Method: Compounds of the invention were tested in the LTA4 hydrolase homogeneous time resolved fluorescence (HTRF) assay to determine their ability to inhibit the hydrolysis of LTA4 to LTB4. The assay analyzes the amount of LTB4 produced.
LTA4 HTRF assay is a two-step assay involving enzymatic conversion of LTA4 to LTB4, and subsequent quantification of LTB4, product with HTRF assay.
The enzymatic conversion of LTA4 to LTB4 was performed in 384-well plates at ambient temperature in a reaction mixture containing 50 mM HEPES (pH 7.5), 0.5% BSA (fatty acid free), 18 nM recombinant human LTA4 hydrolase, 150 nM LTA4, 1% DMSO in the absence or presence of a compound of the invention. […]
LTB4 formed was quantified with the HTRF assay in which free LTB4 competes with LTB4-XL665 conjugate (acceptor) for anti-LTB4 monoclonal antibody labeled with Europium cryptate (donor), thereby inhibiting the fluorescence energy transfer.
The LTB4 HTRF 384-well assay was carried out by incubating LTB4 samples or standards with LTB4-XL665 conjugate (7.5 ng/well) and anti-LTB4 monoclonal antibody-Europium cryptate conjugate (0.5 ng/well) in 50 mM phosphate, 0.4 M KF and 0.1% casein, buffer (pH 7.0) for two hours at ambient temperature. Plates were read in a RubyStar plate reader (BmG Labtechnologies Inc., NC) simultaneously at 620 nm and 665 nm to obtain signal ratios of 665 nm/620 nm. […]

LTA4 hydrolase peptidase activity, sequence (P09960 whole entry): as above

| IC50 [1] | IC50 [2] | IC50 [3] | SMILES |
| --- | --- | --- | --- |
| 7.1 nM | 62 nM | 2.1 nM | O=C(O)C1CCN(C(=O)CN2CCC(Nc3ccc(Oc4ccc(-c5ncco5)cc4)cc3)CC2)CC1 [Example 1, 1-(2-(4-((4-(4-(oxazol-2-yl)phenoxy)phenyl)amino)piperidin-1-yl)acetyl)piperidine-4-carboxylic acid] |
| 22 nM | 100 nM | 1.8 nM | O=C(O)c1ccc(CN2CCCC(CNc3ccc(Oc4ccc(Cl)cc4)cc3)C2)cc1 (stereo not drawn) [Example 3, 4-((3-(((4-(4-chlorophenoxy)phenyl)amino)methyl)piperidin-1-yl)methyl)benzoic acid] |
